Results published in patent US4214093A, “Amino- or guanidino-1,2,3,4-tetrahydro-1-naphthoic esters” (Torii & Co., Ltd., priority 1977, dated 1980).

Biological target: T1, Trypsin (Bos taurus, UniProt P00760)
T1 sequence (P00760 24-246): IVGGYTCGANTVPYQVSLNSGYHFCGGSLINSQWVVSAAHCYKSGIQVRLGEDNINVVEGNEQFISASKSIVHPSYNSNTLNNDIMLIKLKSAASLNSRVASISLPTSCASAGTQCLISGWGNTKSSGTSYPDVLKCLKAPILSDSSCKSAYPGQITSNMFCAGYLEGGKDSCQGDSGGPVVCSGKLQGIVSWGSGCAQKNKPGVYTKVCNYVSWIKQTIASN
Assay: Inhibitory effect on ester-hydrolyzing activity of trypsin (TAMe substrate)
Format: biochemical
Conditions: at 10^-3 M; in vitro, TAMe; read-out: Trypsin percent inhibition
Protocol: (§1) The enzyme-inhibitory activities in vitro of the compounds of this invention were measured by the following procedure according to the method of M. Muramatsu et al. [[…]. […] After the incubation, 1.5 ml of 2 M alkaline hydroxylamine was added and thoroughly mixed, and allowed to stand at room temperature for 15 minutes.

| SMILES | inhibition at 1000 µM [%] |
| --- | --- |
| N#Cc1ccc(OC(=O)C2CCCc3c(NC(=N)N)cccc32)cc1 (stereo not drawn) [Compound 162] | 44.2 |
| N=C(N)Nc1ccc2c(c1)C(C(=O)Oc1cccc3c1CCCC3)CCC2 (stereo not drawn) [Compound 167] | 44.8 |

Same assay, conditions: in vitro, TAMe, pH 8.6, 37° C.; Table 4 bracketed value; read-out: Trypsin ID50

| SMILES | IC50 [µM] |
| --- | --- |
| COC(=O)c1ccc(OC(=O)C2CCCc3ccc(N)cc32)cc1 (stereo not drawn) [Compound 91] | 17 |
| Nc1ccc2c(c1)C(C(=O)Oc1ccc(OC(=O)C3CCCc4ccc(N)cc43)cc1)CCC2 (stereo not drawn) [Compound 106] | 92 |
| N=C(N)Nc1cccc2c1CCCC2C(=O)Oc1ccc(C(=O)OCc2ccccc2)cc1 (stereo not drawn) [Compound 124] | 75 |
| N=C(N)Nc1cccc2c1CCCC2C(=O)Oc1ccc(C(=O)OCC(N)=O)cc1 (stereo not drawn) [Compound 126] | 75 |
| N=C(N)Nc1cccc2c1CCCC2C(=O)Oc1cccc2ccccc12 (stereo not drawn) [Compound 131] | 830 |
| COc1ccc(OC(=O)C2CCCc3ccc(NC(=N)N)cc32)cc1.Cl (stereo not drawn) [Compound 138, p-methoxyphenyl 7-guanidino-1,2,3,4-tetrahydro-1-naphthoate hydrochloride] | 1000 |

Test system: thrombin
Assay: Inhibitory activity on thrombus formation: protection from lethal thrombin injection in mice
Format: in vivo, mice (ddY strain)
Conditions: 1 mg/kg i.p., 10 minutes before thrombin 300 NIH units/kg i.v.; No. 91 in 2.5% gum arabic
Protocol: White male mice (ddY strain), 4 weeks age and weighing 18-27 g, were used throughout the experiments. […] The intravenous injection of 300 NIH units/kg of thrombin over 30 seconds into mice was lethal to all animals. The compounds were intraperitoneally administered in doses of 1, 10, and 100 mg/kg in saline unless otherwise described.
Compounds were intraperitoneally administered 10 minutes before thrombin injection. Compound No. 91 was dissolved in 2.5% gum arabic.

| SMILES | % protective [%] | Survived / Tested |
| --- | --- | --- |
| COC(=O)c1ccc(OC(=O)C2CCCc3ccc(N)cc32)cc1 (stereo not drawn) [Compound 91] | 0 | 0/10 |
| COc1ccc(OC(=O)C2CCCc3ccc(NC(=N)N)cc32)cc1.Cl (stereo not drawn) [Compound 138, p-methoxyphenyl 7-guanidino-1,2,3,4-tetrahydro-1-naphthoate hydrochloride] | 0 | 0/10 |

Same assay, conditions: 10 mg/kg i.p., 10 minutes before thrombin 300 NIH units/kg i.v.; No. 91 in 2.5% gum arabic

| SMILES | % protective [%] | Survived / Tested |
| --- | --- | --- |
| COC(=O)c1ccc(OC(=O)C2CCCc3ccc(N)cc32)cc1 (stereo not drawn) [Compound 91] | 0 | 0/10 |
| COc1ccc(OC(=O)C2CCCc3ccc(NC(=N)N)cc32)cc1.Cl (stereo not drawn) [Compound 138, p-methoxyphenyl 7-guanidino-1,2,3,4-tetrahydro-1-naphthoate hydrochloride] | 20 | 2/10 |

Same assay, conditions: 100 mg/kg i.p., 10 minutes before thrombin 300 NIH units/kg i.v.; No. 91 in 2.5% gum arabic

| SMILES | % protective [%] | Survived / Tested |
| --- | --- | --- |
| COC(=O)c1ccc(OC(=O)C2CCCc3ccc(N)cc32)cc1 (stereo not drawn) [Compound 91] | 20 | 2/10 |
| COc1ccc(OC(=O)C2CCCc3ccc(NC(=N)N)cc32)cc1.Cl (stereo not drawn) [Compound 138, p-methoxyphenyl 7-guanidino-1,2,3,4-tetrahydro-1-naphthoate hydrochloride] | 30 | 3/10 |

Biological target: Human Plasmin (Homo sapiens, UniProt P00747)
Assay: Inhibitory effect on ester-hydrolyzing activity of human plasmin (TAMe substrate)
Format: biochemical
Conditions: at 10^-3 M; in vitro, TAMe; read-out: Plasmin percent inhibition
Protocol: The enzyme-inhibitory activities in vitro of the compounds of this invention were measured by the following procedure according to the method of M. Muramatsu et al. [[…]. […] After the incubation, 1.5 ml of 2 M alkaline hydroxylamine was added and thoroughly mixed, and allowed to stand at room temperature for 15 minutes. […] It was measured by using 0.1 ml of plasmin (generated by activation of plasminogen with streptokinase) and TAMe as substrate following the method described in (1).

Chain of Human Plasmin (P00747 581-810 limits assumed): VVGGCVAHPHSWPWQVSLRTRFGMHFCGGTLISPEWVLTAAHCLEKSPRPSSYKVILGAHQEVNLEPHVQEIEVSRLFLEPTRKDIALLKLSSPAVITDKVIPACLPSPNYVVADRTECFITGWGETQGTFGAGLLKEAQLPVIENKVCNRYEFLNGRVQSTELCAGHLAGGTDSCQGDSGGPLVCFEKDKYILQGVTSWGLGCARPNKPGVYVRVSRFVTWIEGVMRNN
Chain of Human Plasmin (P00747 97-580 partner limits assumed): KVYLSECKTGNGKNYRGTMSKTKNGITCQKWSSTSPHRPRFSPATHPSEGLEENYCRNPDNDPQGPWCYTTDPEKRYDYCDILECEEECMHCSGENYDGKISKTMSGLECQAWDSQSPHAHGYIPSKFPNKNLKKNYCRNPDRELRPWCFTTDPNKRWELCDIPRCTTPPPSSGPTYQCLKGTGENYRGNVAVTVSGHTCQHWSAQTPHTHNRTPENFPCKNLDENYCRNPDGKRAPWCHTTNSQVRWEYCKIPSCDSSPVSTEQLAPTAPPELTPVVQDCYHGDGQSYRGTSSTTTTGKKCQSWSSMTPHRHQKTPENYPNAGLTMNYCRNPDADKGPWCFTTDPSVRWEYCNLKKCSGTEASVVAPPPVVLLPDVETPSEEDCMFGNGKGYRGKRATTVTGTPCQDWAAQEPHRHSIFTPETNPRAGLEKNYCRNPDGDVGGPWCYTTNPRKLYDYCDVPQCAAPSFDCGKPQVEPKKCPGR

| SMILES | inhibition at 1000 µM [%] |
| --- | --- |
| COC(=O)c1ccc(OC(=O)C2CCCc3ccc(N)cc32)cc1 (stereo not drawn) [Compound 91] | 40.7 |
| Nc1ccc2c(c1)C(C(=O)Oc1ccc(OC(=O)C3CCCc4ccc(N)cc43)cc1)CCC2 (stereo not drawn) [Compound 106] | < 3.2 |
| N=C(N)Nc1cccc2c1CCCC2C(=O)Oc1cccc2ccccc12 (stereo not drawn) [Compound 131] | 13.8 |
| COc1ccc(OC(=O)C2CCCc3ccc(NC(=N)N)cc32)cc1.Cl (stereo not drawn) [Compound 138, p-methoxyphenyl 7-guanidino-1,2,3,4-tetrahydro-1-naphthoate hydrochloride] | 17 |
| N#Cc1ccc(OC(=O)C2CCCc3c(NC(=N)N)cccc32)cc1 (stereo not drawn) [Compound 162] | 49 |

Same assay, conditions: in vitro, TAMe; Table 4 bracketed value; read-out: Plasmin ID50

| SMILES | IC50 [µM] |
| --- | --- |
| N=C(N)Nc1cccc2c1CCCC2C(=O)Oc1ccc(C(=O)OCc2ccccc2)cc1 (stereo not drawn) [Compound 124] | 60 |
| N=C(N)Nc1cccc2c1CCCC2C(=O)Oc1ccc(C(=O)OCC(N)=O)cc1 (stereo not drawn) [Compound 126] | 580 |
| N=C(N)Nc1ccc2c(c1)C(C(=O)Oc1cccc3c1CCCC3)CCC2 (stereo not drawn) [Compound 167] | 1000 |

Biological target: Human Plasma Kallikrein (Homo sapiens, UniProt P03952)
Assay: Inhibitory effect on ester-hydrolyzing activity of human plasma kallikrein (TAMe substrate)
Format: biochemical
Conditions: at 10^-3 M; in vitro, TAMe; read-out: Kallikrein percent inhibition
Protocol: as §1

Chain of Human Plasma Kallikrein (P03952 391-638 limits assumed): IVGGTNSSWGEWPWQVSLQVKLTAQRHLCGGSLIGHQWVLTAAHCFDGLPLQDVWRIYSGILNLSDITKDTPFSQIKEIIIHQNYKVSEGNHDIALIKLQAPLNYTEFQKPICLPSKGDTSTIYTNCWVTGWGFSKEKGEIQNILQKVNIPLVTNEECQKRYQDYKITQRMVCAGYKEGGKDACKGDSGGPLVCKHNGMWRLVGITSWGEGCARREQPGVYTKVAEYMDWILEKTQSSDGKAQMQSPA
Chain of Human Plasma Kallikrein (P03952 20-390 partner limits assumed): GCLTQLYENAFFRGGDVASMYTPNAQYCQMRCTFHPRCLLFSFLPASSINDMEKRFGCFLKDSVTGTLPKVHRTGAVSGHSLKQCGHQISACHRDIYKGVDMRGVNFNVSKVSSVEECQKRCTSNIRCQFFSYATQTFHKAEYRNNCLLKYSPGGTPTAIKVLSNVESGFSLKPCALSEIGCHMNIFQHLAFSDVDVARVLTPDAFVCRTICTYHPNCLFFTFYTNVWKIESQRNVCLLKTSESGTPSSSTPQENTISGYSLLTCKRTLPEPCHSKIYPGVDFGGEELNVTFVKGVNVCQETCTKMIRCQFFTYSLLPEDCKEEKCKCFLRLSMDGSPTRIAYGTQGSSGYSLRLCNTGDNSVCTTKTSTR

| SMILES | inhibition at 1000 µM [%] |
| --- | --- |
| Nc1ccc2c(c1)C(C(=O)Oc1ccc(OC(=O)C3CCCc4ccc(N)cc43)cc1)CCC2 (stereo not drawn) [Compound 106] | < 3.2 |
| N=C(N)Nc1cccc2c1CCCC2C(=O)Oc1ccc(C(=O)OCC(N)=O)cc1 (stereo not drawn) [Compound 126] | 46.9 |

Same assay, conditions: in vitro, TAMe; Table 4 bracketed value; read-out: Kallikrein ID50

| SMILES | IC50 [µM] |
| --- | --- |
| N=C(N)Nc1cccc2c1CCCC2C(=O)Oc1ccc(C(=O)OCc2ccccc2)cc1 (stereo not drawn) [Compound 124] | 190 |
| N=C(N)Nc1cccc2c1CCCC2C(=O)Oc1cccc2ccccc12 (stereo not drawn) [Compound 131] | 1000 |
| COc1ccc(OC(=O)C2CCCc3ccc(NC(=N)N)cc32)cc1.Cl (stereo not drawn) [Compound 138, p-methoxyphenyl 7-guanidino-1,2,3,4-tetrahydro-1-naphthoate hydrochloride] | 280 |
| N#Cc1ccc(OC(=O)C2CCCc3c(NC(=N)N)cccc32)cc1 (stereo not drawn) [Compound 162] | 1000 |
| N=C(N)Nc1ccc2c(c1)C(C(=O)Oc1cccc3c1CCCC3)CCC2 (stereo not drawn) [Compound 167] | 200 |

Biological target: Bovine Thrombin (Bos taurus, UniProt P00735)
Assay: Inhibitory effect on ester-hydrolyzing activity of bovine thrombin (TAMe substrate)
Format: biochemical
Conditions: not given
Protocol: The enzyme-inhibitory activities in vitro of the compounds of this invention were measured by the following procedure according to the method of M. Muramatsu et al. [M. Muramatsu, T. Onishi, S. Makino, Y. Hayashi and S. Fujii: J. Biochem., 58, 214 (1965)]
To 0.1 ml of trypsin (5 μg/ml) were added 0.5 ml of 0.1 M borate buffer solution (pH 8.6) containing 10 mM CaCl2, and 0.1 ml of a varying concentration of an inhibitor solution, and preincubation was carried out at 37° C. for 5 minutes. Then, 10 μmoles of the substrate, TAMe (tosylarginine methyl ester), was added, and incubation was preformed at 37° C. for 30 minutes.
After the incubation, 1.5 ml of 2 M alkaline hydroxylamine was added and thoroughly mixed, and allowed to stand at room temperature for 15 minutes. Then, 1.0 ml of each of 18% trichloroacetic acid, 4 N HCl and 10% FeCl3 was added and thoroughly mixed. If necessary, the mixture was centrifuged at 3,000 rpm for 10 minutes, and the absorbance of the supernatant was measured at 530 nm.
It was measured by using 0.4 ml of bovine thrombin […], 0.02 M sodium phosphate buffer solution (pH 7.4) and TAMe as substrate following the method described in (1).

| SMILES | IC50 [µM] |
| --- | --- |
| COC(=O)c1ccc(OC(=O)C2CCCc3ccc(N)cc32)cc1 (stereo not drawn) [Compound 91] | 210 |
| N=C(N)Nc1cccc2c1CCCC2C(=O)Oc1ccc(C(=O)OCC(N)=O)cc1 (stereo not drawn) [Compound 126] | 290 |
| COc1ccc(OC(=O)C2CCCc3ccc(NC(=N)N)cc32)cc1.Cl (stereo not drawn) [Compound 138, p-methoxyphenyl 7-guanidino-1,2,3,4-tetrahydro-1-naphthoate hydrochloride] | 32 |
| N#Cc1ccc(OC(=O)C2CCCc3c(NC(=N)N)cccc32)cc1 (stereo not drawn) [Compound 162] | 1000 |

Same assay, conditions: at 10^-3 M; in vitro, TAMe; read-out: Thrombin percent inhibition

| SMILES | inhibition at 1000 µM [%] |
| --- | --- |
| Nc1ccc2c(c1)C(C(=O)Oc1ccc(OC(=O)C3CCCc4ccc(N)cc43)cc1)CCC2 (stereo not drawn) [Compound 106] | 35 |
| N=C(N)Nc1cccc2c1CCCC2C(=O)Oc1ccc(C(=O)OCc2ccccc2)cc1 (stereo not drawn) [Compound 124] | 45 |
| N=C(N)Nc1cccc2c1CCCC2C(=O)Oc1cccc2ccccc12 (stereo not drawn) [Compound 131] | < 3.2 |
| N=C(N)Nc1ccc2c(c1)C(C(=O)Oc1cccc3c1CCCC3)CCC2 (stereo not drawn) [Compound 167] | < 3.2 |

Biological target: T2, Human Cl Esterase (Homo sapiens, UniProt P09871)
T2 sequence (P09871 438-688 limits assumed): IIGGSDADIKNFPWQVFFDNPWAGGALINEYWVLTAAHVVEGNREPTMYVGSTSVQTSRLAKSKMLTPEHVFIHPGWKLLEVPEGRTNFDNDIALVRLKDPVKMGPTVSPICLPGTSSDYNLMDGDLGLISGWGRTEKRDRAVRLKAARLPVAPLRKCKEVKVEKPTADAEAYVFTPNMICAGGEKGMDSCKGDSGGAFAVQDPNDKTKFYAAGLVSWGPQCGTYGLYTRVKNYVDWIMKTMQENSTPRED
T2 sequence (P09871 16-437 partner limits assumed): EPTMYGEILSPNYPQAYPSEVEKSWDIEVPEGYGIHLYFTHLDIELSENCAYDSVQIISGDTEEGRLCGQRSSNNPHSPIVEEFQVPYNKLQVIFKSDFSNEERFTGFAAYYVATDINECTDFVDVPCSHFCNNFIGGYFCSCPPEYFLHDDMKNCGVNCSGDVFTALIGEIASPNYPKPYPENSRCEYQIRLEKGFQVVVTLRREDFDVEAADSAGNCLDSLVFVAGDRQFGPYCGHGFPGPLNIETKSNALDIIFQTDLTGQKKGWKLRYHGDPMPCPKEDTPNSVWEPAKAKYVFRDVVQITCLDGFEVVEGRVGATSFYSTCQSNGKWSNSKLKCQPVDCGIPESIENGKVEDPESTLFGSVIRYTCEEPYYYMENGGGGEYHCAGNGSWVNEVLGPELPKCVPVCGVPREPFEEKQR
Assay: Inhibitory effect on ester-hydrolyzing activity of human Cl esterase (ATEe substrate)
Format: biochemical
Conditions: at 10^-3 M; in vitro, ATEe; read-out: Cl-esterase percent inhibition
Protocol: It was measured by using 0.1 ml of Cl esterase, 0.1 ml of 0.02 M sodium phosphate buffer solution (pH 7.4 ) and 10 μmoles of ATEe (acetyltyrosine ethyl ester) as substrate following the method described in (1).

| SMILES | inhibition at 1000 µM [%] |
| --- | --- |
| Nc1ccc2c(c1)C(C(=O)Oc1ccc(OC(=O)C3CCCc4ccc(N)cc43)cc1)CCC2 (stereo not drawn) [Compound 106] | 31 |

Same assay, conditions: in vitro, ATEe, pH 7.4; Table 4 bracketed value; read-out: Cl-esterase ID50

| SMILES | IC50 [µM] |
| --- | --- |
| N=C(N)Nc1cccc2c1CCCC2C(=O)Oc1ccc(C(=O)OCc2ccccc2)cc1 (stereo not drawn) [Compound 124] | 1000 |
| N=C(N)Nc1cccc2c1CCCC2C(=O)Oc1cccc2ccccc12 (stereo not drawn) [Compound 131] | 410 |
| N=C(N)Nc1ccc2c(c1)C(C(=O)Oc1cccc3c1CCCC3)CCC2 (stereo not drawn) [Compound 167] | 420 |

Same assay, conditions: read-out: Cl-esterase percent inhibition

| SMILES | inhibition at 1000 µM [%] |
| --- | --- |
| COC(=O)c1ccc(OC(=O)C2CCCc3ccc(N)cc32)cc1 (stereo not drawn) [Compound 91] | 27.4 |
| N=C(N)Nc1cccc2c1CCCC2C(=O)Oc1ccc(C(=O)OCC(N)=O)cc1 (stereo not drawn) [Compound 126] | 30.6 |
| COc1ccc(OC(=O)C2CCCc3ccc(NC(=N)N)cc32)cc1.Cl (stereo not drawn) [Compound 138, p-methoxyphenyl 7-guanidino-1,2,3,4-tetrahydro-1-naphthoate hydrochloride] | 39 |
| N#Cc1ccc(OC(=O)C2CCCc3c(NC(=N)N)cccc32)cc1 (stereo not drawn) [Compound 162] | 26.4 |
